ChEMBL document CHEMBL4251615, “Discovery of anilino-furo[2,3-d]pyrimidine derivatives as dual inhibitors of EGFR/HER2 tyrosine kinase and their anticancer activity” (Eur J Med Chem, 2018)

System: NCI-H522
Assay: Growth inhibition of human NCI-H522 cells assessed as cell growth at 10 uM incubated for 48 hrs by sulforhodamine B assay relative to control
Type: functional
Conditions: NCI-H522, 48 h, read-out: Activity

Row | SMILES | growth at 10 µM
1 | Cc1cccc(Nc2ncnc3oc(C)c(C(=O)NCCN4CCOCC4)c23)c1 | 89.9%

System: 786-0
Assay: Growth inhibition of human 786-0 cells assessed as cell growth at 10 uM incubated for 48 hrs by sulforhodamine B assay relative to control
Type: functional
Conditions: 786-0, 48 h, read-out: Activity

Row | SMILES | growth at 10 µM
2 | Cc1cccc(Nc2ncnc3oc(C)c(C(=O)NCCN4CCOCC4)c23)c1 | 92.4%

System: HT-29
Assay: Growth inhibition of human HT-29 cells assessed as cell growth at 10 uM incubated for 48 hrs by sulforhodamine B assay relative to control
Type: functional
Conditions: HT-29, 48 h, read-out: Activity

Row | SMILES | growth at 10 µM
3 | Cc1cccc(Nc2ncnc3oc(C)c(C(=O)NCCN4CCOCC4)c23)c1 | 104%

System: BT-549
Assay: Growth inhibition of human BT549 cells assessed as cell growth at 10 uM incubated for 48 hrs by sulforhodamine B assay relative to control
Type: functional
Conditions: BT-549, 48 h, read-out: Activity

Row | SMILES | growth at 10 µM
4 | Cc1cccc(Nc2ncnc3oc(C)c(C(=O)NCCN4CCOCC4)c23)c1 | 90.7%

System: OVCAR-4
Assay: Growth inhibition of human OVCAR4 cells assessed as cell growth at 10 uM incubated for 48 hrs by sulforhodamine B assay relative to control
Type: functional
Conditions: OVCAR-4, 48 h, read-out: Activity

Row | SMILES | growth at 10 µM
5 | Cc1cccc(Nc2ncnc3oc(C)c(C(=O)NCCN4CCOCC4)c23)c1 | 110%

System: SK-MEL-2
Assay: Growth inhibition of human SK-MEL-2 cells assessed as cell growth at 10 uM incubated for 48 hrs by sulforhodamine B assay relative to control
Type: functional
Conditions: SK-MEL-2, 48 h, read-out: Activity

Row | SMILES | growth at 10 µM
6 | Cc1cccc(Nc2ncnc3oc(C)c(C(=O)NCCN4CCOCC4)c23)c1 | 106%

System: TK-10
Assay: Growth inhibition of human TK10 cells assessed as cell growth at 10 uM incubated for 48 hrs by sulforhodamine B assay relative to control
Type: functional
Conditions: TK-10, 48 h, read-out: Activity

Row | SMILES | growth at 10 µM
7 | Cc1cccc(Nc2ncnc3oc(C)c(C(=O)NCCN4CCOCC4)c23)c1 | 98.7%

System: SF-268
Assay: Growth inhibition of human SF268 cells assessed as cell growth at 10 uM incubated for 48 hrs by sulforhodamine B assay relative to control
Type: functional
Conditions: SF-268, 48 h, read-out: Activity

Row | SMILES | growth at 10 µM
8 | Cc1cccc(Nc2ncnc3oc(C)c(C(=O)NCCN4CCOCC4)c23)c1 | 93.3%

System: A549
Assay: Growth inhibition of human A549/ATCC cells assessed as cell growth at 10 uM incubated for 48 hrs by sulforhodamine B assay relative to control
Type: functional
Conditions: A549, 48 h, read-out: Activity

Row | SMILES | growth at 10 µM
9 | Cc1cccc(Nc2ncnc3oc(C)c(C(=O)NCCN4CCOCC4)c23)c1 | 102%

System: NCI-H23
Assay: Growth inhibition of human NCI-H23 cells assessed as cell growth at 10 uM incubated for 48 hrs by sulforhodamine B assay relative to control
Type: functional
Conditions: NCI-H23, 48 h, read-out: Activity

Row | SMILES | growth at 10 µM
10 | Cc1cccc(Nc2ncnc3oc(C)c(C(=O)NCCN4CCOCC4)c23)c1 | 92.5%

System: MDA-MB-468
Assay: Growth inhibition of human MDA-MB-468 cells assessed as cell growth at 10 uM incubated for 48 hrs by sulforhodamine B assay relative to control
Type: functional
Conditions: MDA-MB-468, 48 h, read-out: Activity

Row | SMILES | growth at 10 µM
11 | Cc1cccc(Nc2ncnc3oc(C)c(C(=O)NCCN4CCOCC4)c23)c1 | 89.4%

System: MDA-MB-435
Assay: Growth inhibition of human MDA-MB-435 cells assessed as cell growth at 10 uM incubated for 48 hrs by sulforhodamine B assay relative to control
Type: functional
Conditions: MDA-MB-435, 48 h, read-out: Activity

Row | SMILES | growth at 10 µM
12 | Cc1cccc(Nc2ncnc3oc(C)c(C(=O)NCCN4CCOCC4)c23)c1 | 101%

System: OVCAR-3
Assay: Growth inhibition of human OVCAR3 cells assessed as cell growth at 10 uM incubated for 48 hrs by sulforhodamine B assay relative to control
Type: functional
Conditions: OVCAR-3, 48 h, read-out: Activity

Row | SMILES | growth at 10 µM
13 | Cc1cccc(Nc2ncnc3oc(C)c(C(=O)NCCN4CCOCC4)c23)c1 | 102%

System: RXF 393
Assay: Growth inhibition of human RXF393 cells assessed as cell growth at 10 uM incubated for 48 hrs by sulforhodamine B assay relative to control
Type: functional
Conditions: RXF 393, 48 h, read-out: Activity

Row | SMILES | growth at 10 µM
14 | Cc1cccc(Nc2ncnc3oc(C)c(C(=O)NCCN4CCOCC4)c23)c1 | 86.3%

System: SW-620
Assay: Growth inhibition of human SW620 cells assessed as cell growth at 10 uM incubated for 48 hrs by sulforhodamine B assay relative to control
Type: functional
Conditions: SW-620, 48 h, read-out: Activity

Row | SMILES | growth at 10 µM
15 | Cc1cccc(Nc2ncnc3oc(C)c(C(=O)NCCN4CCOCC4)c23)c1 | 98.9%

System: Hs-578T
Assay: Growth inhibition of human Hs 578T cells assessed as cell growth at 10 uM incubated for 48 hrs by sulforhodamine B assay relative to control
Type: functional
Conditions: read-out: Activity

Row | SMILES | growth at 10 µM
16 | Cc1cccc(Nc2ncnc3oc(C)c(C(=O)NCCN4CCOCC4)c23)c1 | 88.5%

System: HOP-92
Assay: Growth inhibition of human HOP92 cells assessed as cell growth at 10 uM incubated for 48 hrs by sulforhodamine B assay relative to control
Type: functional
Conditions: HOP-92, 48 h, read-out: Activity

Row | SMILES | growth at 10 µM
17 | Cc1cccc(Nc2ncnc3oc(C)c(C(=O)NCCN4CCOCC4)c23)c1 | 97.6%

System: ACHN
Assay: Growth inhibition of human ACHN cells assessed as cell growth at 10 uM incubated for 48 hrs by sulforhodamine B assay relative to control
Type: functional
Conditions: read-out: Activity

Row | SMILES | growth at 10 µM
18 | Cc1cccc(Nc2ncnc3oc(C)c(C(=O)NCCN4CCOCC4)c23)c1 | 93.6%

System: EKVX
Assay: Growth inhibition of human EKVX cells assessed as cell growth at 10 uM incubated for 48 hrs by sulforhodamine B assay relative to control
Type: functional
Conditions: read-out: Activity

Row | SMILES | growth at 10 µM
19 | Cc1cccc(Nc2ncnc3oc(C)c(C(=O)NCCN4CCOCC4)c23)c1 | 92.6%

System: Malme-3M
Assay: Growth inhibition of human MALME-3M cells assessed as cell growth at 10 uM incubated for 48 hrs by sulforhodamine B assay relative to control
Type: functional
Conditions: read-out: Activity

Row | SMILES | growth at 10 µM
20 | Cc1cccc(Nc2ncnc3oc(C)c(C(=O)NCCN4CCOCC4)c23)c1 | 97.2%

System: NCI-H322M
Assay: Growth inhibition of human NCI-H322M cells assessed as cell growth at 10 uM incubated for 48 hrs by sulforhodamine B assay relative to control
Type: functional
Conditions: read-out: Activity

Row | SMILES | growth at 10 µM
21 | Cc1cccc(Nc2ncnc3oc(C)c(C(=O)NCCN4CCOCC4)c23)c1 | 101%

System: SNB-19
Assay: Growth inhibition of human SNB19 cells assessed as cell growth at 10 uM incubated for 48 hrs by sulforhodamine B assay relative to control
Type: functional
Conditions: SNB-19, 48 h, read-out: Activity

Row | SMILES | growth at 10 µM
22 | Cc1cccc(Nc2ncnc3oc(C)c(C(=O)NCCN4CCOCC4)c23)c1 | 91%

System: U-251
Assay: Growth inhibition of human U251 cells assessed as cell growth at 10 uM incubated for 48 hrs by sulforhodamine B assay relative to control
Type: functional
Conditions: U-251, 48 h, read-out: Activity

Row | SMILES | growth at 10 µM
23 | Cc1cccc(Nc2ncnc3oc(C)c(C(=O)NCCN4CCOCC4)c23)c1 | 105%

System: SF-295
Assay: Growth inhibition of human SF295 cells assessed as cell growth at 10 uM incubated for 48 hrs by sulforhodamine B assay relative to control
Type: functional
Conditions: SF-295, 48 h, read-out: Activity

Row | SMILES | growth at 10 µM
24 | Cc1cccc(Nc2ncnc3oc(C)c(C(=O)NCCN4CCOCC4)c23)c1 | 94%

System: PC-3
Assay: Growth inhibition of human PC3 cells assessed as cell growth at 10 uM incubated for 48 hrs by sulforhodamine B assay relative to control
Type: functional
Conditions: PC-3, 48 h, read-out: Activity

Row | SMILES | growth at 10 µM
25 | Cc1cccc(Nc2ncnc3oc(C)c(C(=O)NCCN4CCOCC4)c23)c1 | 101%

System: HCC 2998
Assay: Growth inhibition of human HCC2998 cells assessed as cell growth at 10 uM incubated for 48 hrs by sulforhodamine B assay relative to control
Type: functional
Conditions: HCC 2998, 48 h, read-out: Activity

Row | SMILES | growth at 10 µM
26 | Cc1cccc(Nc2ncnc3oc(C)c(C(=O)NCCN4CCOCC4)c23)c1 | 97.1%

System: HCT-116
Assay: Growth inhibition of human HCT116 cells assessed as cell growth at 10 uM incubated for 48 hrs by sulforhodamine B assay relative to control
Type: functional
Conditions: HCT-116, 48 h, read-out: Activity

Row | SMILES | growth at 10 µM
27 | Cc1cccc(Nc2ncnc3oc(C)c(C(=O)NCCN4CCOCC4)c23)c1 | 117%

System: RPMI-8226
Assay: Growth inhibition of human RPMI8226 cells assessed as cell growth at 10 uM incubated for 48 hrs by sulforhodamine B assay relative to control
Type: functional
Conditions: RPMI-8226, 48 h, read-out: Activity

Row | SMILES | growth at 10 µM
28 | Cc1cccc(Nc2ncnc3oc(C)c(C(=O)NCCN4CCOCC4)c23)c1 | 89.5%

System: MCF7
Assay: Growth inhibition of human MCF7 cells assessed as cell growth at 10 uM incubated for 48 hrs by sulforhodamine B assay relative to control
Type: functional
Conditions: MCF7, 48 h, read-out: Activity

Row | SMILES | growth at 10 µM
29 | Cc1cccc(Nc2ncnc3oc(C)c(C(=O)NCCN4CCOCC4)c23)c1 | 96.2%

System: MDA-MB-231
Assay: Growth inhibition of human MDA-MB-231 cells assessed as cell growth at 10 uM incubated for 48 hrs by sulforhodamine B assay relative to control
Type: functional
Conditions: MDA-MB-231, 48 h, read-out: Activity

Row | SMILES | growth at 10 µM
30 | Cc1cccc(Nc2ncnc3oc(C)c(C(=O)NCCN4CCOCC4)c23)c1 | 81.8%

System: HL-60(TB)
Assay: Growth inhibition of human HL-60(TB) cells assessed as cell growth at 10 uM incubated for 48 hrs by sulforhodamine B assay relative to control
Type: functional
Conditions: HL-60, 48 h, read-out: Activity

Row | SMILES | growth at 10 µM
31 | Cc1cccc(Nc2ncnc3oc(C)c(C(=O)NCCN4CCOCC4)c23)c1 | 92.4%

System: SN12C
Assay: Growth inhibition of human SN12C cells assessed as cell growth at 10 uM incubated for 48 hrs by sulforhodamine B assay relative to control
Type: functional
Conditions: read-out: Activity

Row | SMILES | growth at 10 µM
32 | Cc1cccc(Nc2ncnc3oc(C)c(C(=O)NCCN4CCOCC4)c23)c1 | 94.3%

System: MOLT-4
Assay: Growth inhibition of human MOLT4 cells assessed as cell growth at 10 uM incubated for 48 hrs by sulforhodamine B assay relative to control
Type: functional
Conditions: MOLT-4, 48 h, read-out: Activity

Row | SMILES | growth at 10 µM
33 | Cc1cccc(Nc2ncnc3oc(C)c(C(=O)NCCN4CCOCC4)c23)c1 | 111%
